Data as given in US5360803A, “Composition and method for treating cancer” (Dan Farber Cancer Institute, priority 1992, dated 1994).
Read-outs that look alike come from different tables or passages of the source.

Legend:
normal nude mice = experiment: toxicity to normal nude mice
CV-1 cells = experiment: selective killing assay, colony number reduced to 50% of control, normal monkey kidney epithelial cell line CV-1; assay type: cell-based; conditions: 24 hours treatment; for IC50: Primates
Description: (§1) The control received culture media only.

CX-1 cells = experiment: selective killing assay, colony number reduced to 50% of control, human colon carcinoma cell line CX-1; assay type: cell-based; conditions: for Selectivity (ratio of IC50 for CV-1 and IC50 for CX-1): CV-1/CX-1; for IC50 / CX-1 (IC50): human colon carcinoma, 24 hours treatment, colony count after 7 to 10 days;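 as to all read-outs here: colonies stained with crystal violet and counted, control cells given medium alone, exposure at 37 °C, normal monkey kidney epithelial CV-1 cells as the non-cancer comparator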
[1] = system: human colon carcinoma CX-1; experiment: anti-human colon carcinoma CX-1 activity using nude mice; assay type: in vivo, Swiss nu/nu mice (human tumor); conditions: Mus musculus, ip, 24 h, read-out: Tumor Inhibition
Description: Human colon carcinoma cell line CX-1 has been chosen by the National Cancer Institute as a mode for cancer drug screening (NCI Protocol 3C2H2). It was established in culture from the surgical explant of the primary colon adenocarcinoma of a person with no previous chemotherapy. The cultured CX-1 cells, upon subcutaneous injection, can grow readily in nude mice as a moderately- to well-differentiated human colon carcinoma. CEA is expressed as expected for differentiated colon carcinoma cells. Abundant keratin, consistent with epithelial origin, is present. Increased uptake and prolonged retention of delocalized lipophilic cations are observed.
Swiss nu/nu mice obtained from Taconic Farm were housed in a pathogen-free environment. Tumors subcutaneously passaged in nude mice were excised under sterile conditions and converted to a single cell suspension using a metal grid with a 0.4 mm mesh. Red blood cells were lysed by incubation with 0.17M ammonium chloride at 4° C. for 20 minutes. Cells were scored for viability with trypan blue. Viable CX-1 cells (2.5 million) made up in 0.1 ml of […]. The mice were randomly allocated into a control group (five mice) and a treatment group (five mice per group). The drug treatment was commenced the next day. Doses and schedules were developed empirically and were based mainly on information on LD50 and LD1O obtained from preliminary toxicity studies. The control group received an equivalent volume of hydroxypropyl-β-cyclodextrin-5% glucose solution.
The pharmaceutical compositions tested comprised solutions in 5% glucose subjected to sonication at concentrations of 1 mg/ml. Those compounds which were not completely dissolved by this procedure were dissolved hydroxypropyl-β-cyclodextrin using the following method. Hydroxypropyl-β-cyclodextrin (45 g) was mixed with 100 ml of sterilized, double distilled water and stirred for four hours. Each of the compounds to be tested (20 mg) was mixed with 10 ml of hydroxypropyl-β-cyclodextrin solution and sonicated for 60 minutes in the dark. This solution was then diluted in 5% glucose to yield a final compound concentration of 0.5 mg/ml, and further sonicated for 60 minutes in the dark to assure that the compound was completely dissolved.
When the growth of tumors in the control group reached the exponential phase and the size of the tumor was palpable (usually 20 to 30 days after tumor implantation), the experiments were terminated. Tumors in each mouse were excised and weighed using an analytical balance. Total tumor weight in each group from five mice was calculated. Per cent tumor inhibition between the treated group and the control group was then calculated for each group.

EJ cells = experiment: colony assay of Example 1 with human bladder carcinoma EJ cell line; assay type: cell-based; conditions: for Selectivity: CV-1/EJ; for IC50: EJ; for IC50 / EJ (IC50): Table IV, human bladder carcinoma, 24 hours treatment;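 as to all read-outs here: colony formation assay with 24 h compound exposure at 37 °C, then 7–10 days drug-free regrowth, colonies stained with crystal violet, controls given medium alone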
CRL 1420 cells = experiment: colony assay of Example 1 with human pancreatic carcinoma CRL 1420 cell line; assay type: cell-based; conditions: for Selectivity: CV-1/CRL-1420; for IC50 / CRL-1420(IC50): Table VII, human pancreatic carcinoma, 24 hours treatment;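 as to all read-outs here: colony formation assay, cells exposed for 24 h then regrown 7 to 10 days without compound, colonies stained with crystal violet, control given medium alone, normal reference CV-1 monkey kidney epithelial cells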
LOX cells = experiment: colony assay of Example 1 with human melanoma LOX cell line; assay type: cell-based; conditions: for Selectivity: CV-1/LOX; for IC50: LOX; for IC50 / LOX(IC50): Table V, human melanoma, 24 hours treatment;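 as to all read-outs here: colony formation assay with 24 h exposure at 37 °C, then 7 to 10 days of regrowth, crystal violet staining of colonies, control wells given medium alone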
MCF-7 cells = experiment: colony assay of Example 1 with human breast carcinoma MCF-7 cell line; assay type: cell-based; conditions: for Selectivity: CV-1/MCF-7
Description: as §1

human melanoma LOX = experiment: survival of nude mice implanted with human melanoma LOX; assay type: in vivo, male athymic Swiss nu/nu mouse (human tumor); conditions: for response vs control in vivo at 5 mg/kg: Mus musculus, ip, 24 h, read-out: T/C
[2] = CV-1, Table III, normal monkey kidney epithelial cells, colony count after 7 to 10 days
[3] = 5 mg/kg i.p. on day 1, 5, 8, 11
[4] = Homo sapiens, MCF7, 24 h, Table VI, human breast carcinoma, 24 hours treatment

SMILES | toxicity to normal nude mice (normal nude mice) | IC50 (CV-1 cells; [2]) | Selectivity (ratio of IC50 for CV-1 and IC50 for CX-1) (CX-1 cells) | IC50 (CX-1 cells; Homo sapiens, CX-1, Table III) | Selectivity (EJ cells) | Selectivity (CRL 1420 cells) | Selectivity (LOX cells) | Selectivity (MCF-7 cells) | IC50 (CV-1 cells; CV-1, 24 h, Table VI) | IC50 (CV-1 cells; CV-1, 24 h, Table IV) | IC50 (CV-1 cells; CV-1, 24 h, Table VII) | other results
CCN1/C(=C/C=C/c2sc3ccccc3[n+]2CC)Sc2ccccc21 [A, reference compound] | highly toxic to normal nude mice | 0.6 µg/mL |  |  |  |  |  |  |  |  |  | 
CCN1C(=CC=C(Cl)C=Cc2sc3ccc4ccccc4c3[n+]2CC)Sc2ccc3ccccc3c21 [H, reference compound] | highly toxic to normal nude mice | 0.1 µg/mL | 2.5 | 0.04 µg/mL |  |  |  |  |  |  |  | 
CCn1c(=Cc2[se]c3ccccc3[n+]2CC)sc(=C2Sc3ccccc3N2C)c1=O [Compound 27] |  | 20 µg/mL | 667 |  | 1000 | 1333 | 1333 | 333 |  |  |  | inhibition in vivo at 2.5 mg/kg [1]: 40.9%; IC50 (CX-1 cells; CX-1, Table III): 0.03 µg/mL; IC50 (EJ cells): 0.02 µg/mL; IC50 (CRL 1420 cells): 0.015 µg/mL; IC50 (LOX cells): 0.015 µg/mL; IC50 (CV-1 cells; CV-1, Table IV): 20 µg/mL; IC50 (CV-1 cells; CV-1, Table V): 20 µg/mL; IC50 (MCF-7 cells; MCF7, Table VI, human breast carcinoma, 24 hours treatment): 0.06 µg/mL
CCN1C(=CC=CC=Cc2sc3ccccc3[n+]2CC)Oc2ccccc21 [F, reference compound] | less toxic to normal nude mice | 1.5 µg/mL | 50 | 0.03 µg/mL |  |  |  |  |  |  |  | 
CCCN1C(=CC=CC=Cc2oc3ccccc3[n+]2CCC)Oc2ccccc21 [E, reference compound] | less toxic to normal nude mice | 6 µg/mL | 12 | 0.5 µg/mL |  |  |  |  |  |  |  | 
CCn1c(=Cc2oc3ccccc3[n+]2C)sc(=C2Sc3ccccc3N2C)c1=O [Compound 26] |  |  | 500 |  | 400 | 500 | 400 | 333 | 20 µg/mL |  |  | inhibition in vivo at 5 mg/kg [1, 3]: 53.6%; CX-1 (IC50) (CX-1 cells; Table III): 0.04 µg/mL; EJ (IC50) (EJ cells): 0.05 µg/mL; CRL-1420(IC50) (CRL 1420 cells): 0.04 µg/mL; LOX(IC50) (LOX cells): 0.05 µg/mL; IC50 (MCF-7 cells; [4]): 0.06 µg/mL
CCN1C(=c2sc(=Cc3oc4ccccc4[n+]3CC)n(CC)c2=O)Sc2ccccc21 [Compound 19] |  | 10 µg/mL | 500 | 0.02 µg/mL | 200 | 111 | > 200 | 167 | 10 µg/mL | 20 µg/mL | 10 µg/mL | inhibition in vivo at 5 mg/kg ([1]; 5 mg/kg i.p. on day 1, 9, 13): 60.4%; IC50 (EJ cells; Homo sapiens, 24 h): 0.1 µg/mL; IC50 (CRL 1420 cells; Homo sapiens, 24 h): 0.09 µg/mL; IC50 (LOX cells; Homo sapiens, 24 h): < 0.1 µg/mL; IC50 (CV-1 cells; CV-1, 24 h, Table V): 20 µg/mL; IC50 (MCF-7 cells; [4]): 0.06 µg/mL
CCN1C(=CC(C)=Cc2sc3c4ccccc4ccc3[n+]2CC)Sc2c1ccc1ccccc21 [G, reference compound] | highly toxic to normal nude mice | 0.1 µg/mL | 5 | 0.02 µg/mL |  |  |  |  |  |  |  | 
CCn1c(=C2CCC[n+]3c2sc2ccccc23)sc(=C2Sc3ccccc3N2C)c1=O [Compound 39] |  | 20 µg/mL | 500 | 0.04 µg/mL | 500 | 400 | 666 | 222 | 20 µg/mL | 20 µg/mL | 20 µg/mL | inhibition in vivo at 5 mg/kg [1, 3]: 74.9%; response vs control in vivo at 5 mg/kg (human melanoma LOX; 5 mg/kg i.p. on day 1, 4, 11, 15, 18): 154%; IC50 (EJ cells; Homo sapiens, 24 h): 0.04 µg/mL; IC50 (CRL 1420 cells; Homo sapiens, 24 h): 0.05 µg/mL; IC50 (LOX cells; Homo sapiens, 24 h): 0.03 µg/mL; IC50 (CV-1 cells; CV-1, 24 h, Table V): 20 µg/mL; IC50 (MCF-7 cells; [4]): 0.09 µg/mL
CCn1c(=Cc2oc3ccccc3[n+]2C)sc(=C2Sc3ccccc3N2C)c1=O [Compound 9] |  |  | 500 |  | 400 | 222 | > 300 |  |  | 20 µg/mL | 20 µg/mL | inhibition in vivo at 5 mg/kg ([1]; 5 mg/kg i.p. on day 1, 9, 13): 45.2%; CX-1 (IC50) (CX-1 cells; Table III): 0.04 µg/mL; T/C (human melanoma LOX; 5 mg/kg i.p. on day 1, 4, 8, 11, 15, 18): 142%; EJ (IC50) (EJ cells): 0.05 µg/mL; CRL-1420(IC50) (CRL 1420 cells): 0.09 µg/mL; LOX(IC50) (LOX cells): 0.1 µg/mL; CV-1 (IC50) (CV-1 cells; Table V): > 30 µg/mL
CCN1C(=CC=Cc2sc3c4ccccc4ccc3[n+]2CC)Sc2c1ccc1ccccc21 [B, reference compound] | highly toxic to normal nude mice | < 0.1 µg/mL | < 2 | 0.05 µg/mL |  |  |  |  |  |  |  | 
CCn1c(=CC2=[N+](CC)CCS2)sc(=C2Sc3ccccc3N2C)c1=O [Compound 16] |  | 20 µg/mL | 667 |  | 100 | 285 | 222 | 333 | 20 µg/mL | 20 µg/mL | 20 µg/mL | inhibition in vivo at 5 mg/kg ([1]; 5 mg/kg i.p. on day 1, 5, 8, 12, 15, 19): 82.9%; CX-1 (IC50) (CX-1 cells; Table III): 0.03 µg/mL; response vs control in vivo at 5 mg/kg (human melanoma LOX; 5 mg/kg i.p. on day 1, 4, 8, 11): 147%; IC50 (EJ cells; Homo sapiens, 24 h): 0.2 µg/mL; IC50 (CRL 1420 cells; Homo sapiens, 24 h): 0.07 µg/mL; LOX(IC50) (LOX cells): 0.09 µg/mL; IC50 (CV-1 cells; CV-1, 24 h, Table V): 20 µg/mL; MCF-7(IC50) (MCF-7 cells; Table VI, human breast carcinoma, 24 hours treatment): 0.06 µg/mL
